This note sets out measurements from patent US12351574B2, “Selective ligands for modulation of GIRK channels” (Northeastern University, priority 2018, dated 2025).

One assay concerns the target T1, GIRK1/2 (UniProt P48542+P48549).
T1 sequence (P48549 1-501): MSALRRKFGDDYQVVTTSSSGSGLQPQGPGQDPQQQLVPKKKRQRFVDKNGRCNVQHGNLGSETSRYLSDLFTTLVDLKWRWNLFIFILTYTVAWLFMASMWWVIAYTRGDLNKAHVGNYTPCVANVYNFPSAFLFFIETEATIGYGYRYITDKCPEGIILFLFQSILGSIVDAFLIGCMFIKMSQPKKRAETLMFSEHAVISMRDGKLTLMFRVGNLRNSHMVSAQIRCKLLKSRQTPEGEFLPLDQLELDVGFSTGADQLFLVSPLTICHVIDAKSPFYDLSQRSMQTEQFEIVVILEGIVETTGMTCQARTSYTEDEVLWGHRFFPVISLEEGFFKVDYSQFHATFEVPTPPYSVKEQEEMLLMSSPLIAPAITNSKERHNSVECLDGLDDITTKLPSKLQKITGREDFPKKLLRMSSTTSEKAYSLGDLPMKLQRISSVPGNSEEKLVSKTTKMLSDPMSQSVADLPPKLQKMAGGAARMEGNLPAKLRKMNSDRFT
T1 sequence (P48542 1-425): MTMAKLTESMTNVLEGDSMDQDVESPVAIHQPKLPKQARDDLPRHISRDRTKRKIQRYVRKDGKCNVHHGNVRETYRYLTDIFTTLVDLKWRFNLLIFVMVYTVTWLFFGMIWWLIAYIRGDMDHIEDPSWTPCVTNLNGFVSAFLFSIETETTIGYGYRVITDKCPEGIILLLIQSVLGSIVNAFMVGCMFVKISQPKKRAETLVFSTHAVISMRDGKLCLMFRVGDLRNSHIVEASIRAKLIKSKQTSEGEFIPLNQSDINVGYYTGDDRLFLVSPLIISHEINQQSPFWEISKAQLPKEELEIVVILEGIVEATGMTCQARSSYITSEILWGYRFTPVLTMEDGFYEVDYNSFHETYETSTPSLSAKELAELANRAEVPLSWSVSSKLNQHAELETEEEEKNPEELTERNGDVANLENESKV
In words: current inhibition by light-activated phosphatase 5-ptaseOCRL, HEK293 whole-cell patch-clamp, GIRK1/2. In kind it is cell-based, human GIRK1, mouse GIRK2. Also on record: expressed in transfected cells. The settings on record: for percentage of GIRK1/2 channel current remaining following activation of 5-ptaseOCRL (in words) / τ of current-inhibition, GIRK1/2 (in words): 10 μM compound versus control; for protection from current inhibition, rank order, GIRK1/2: current levels and kinetics of inhibition. The text has this: (§1) The inventors next pursued whole-cell patch-clamp experiments to further validate the model predictions and excised-patch results. Expression of a light-activated phosphatase that upon exposure to blue light dephosphorylates PI(4,5)P2 to PI(4)P and inhibits GIRK currents allowed recording of macroscopic currents in the absence and presence of ML297 and the two brain-specific GAT compounds. […] Since GAT1508 and ML297 only bind GIRK1 or GIRK1-like (i.e. “FD-containing”, “FD”=mimics the contribution of GIRK1 residues F137 and D173, see Example 2) subunits resulting in corresponding changes in channel-PIP2 interactions and channel activity, the inventors next sought to compare channel subunit specific interactions with PIP2 for subunits bound to the ligand (P-FD) versus those not bound to the ligand (P-WT) (FIGS. 19, 38A).
(§2) Culture of HEK293 cells: HEK293-T cells were obtained from ATCC and maintained in DMEM medium supplemented with 10% FBS and 1% penicillin and streptomycin (Hyclone). For patch-clamp studies, cells were seeded on glass coverslips and transfected 24-hours later using a polyethylenimine solution (1 mg/ml) at a ratio of 8 μl per μg of DNA. To study GIRK-currents, cells were transfected with 0.75 μg each of plasmids encoding GIRK1, GIRK2 or GIRK4 as indicated. In the optogenetic experiments, cells were co-transfected with plasmids encoding 5-ptaseOCRL and CIBN-CAAX, as previously described. 5-ptaseOCRL and CIBN-CAAX were a kind gift from the DeCamilli lab, Yale CT. All experiments were performed at room temperature 24-36 hours post transfection.
Light-activated phosphatase system: The inventors used a light-activated phosphatase system to dephosphorylate PIP2 that is comprised of two fusion proteins: CRY2-5-ptaseOCRL contains the photolyase domain of cryptochrome 2 (CRY2) and the inositol 5-phosphatase domain of the […] oculocerebrorenal syndrome protein (OCRL), while CIBN-CAAX contains the CRY2 binding domain (CIBN) and a C-terminal CAAX box for plasma membrane targeting. When CRY2-5-ptaseOCRL and CIBN-CAAX fusion proteins are co-expressed and exposed to blue light between 458-488 nm, the 5-ptase is localized to the plasma membrane, where it dephosphorylates PIP2. […] The 5-ptaseOCRL system was activated using a 460 nm LED (Luminus) that was focused on the cells through the objective lens of an inverted microscope (Nikon).
Patch-clamp recording: Whole-cell currents were recorded with an Axopatch 200B amplifier (Molecular Devices) controlled via a USB-interface (National Instruments) using WinWCP software (University of Strathclyde). Currents were acquired through a lowpass Bessel filter at 2 kHz and were digitized at 10 kHz. […] Cells for study were selected based on GFP expression using an epifluorescence microscope (Nikon). […] Cells were perfused via a multi-channel gravity-driven perfusion manifold with a physiological buffer comprising: 135 mM NaCl, 5 mM KCl, 1.2 mM MgCl2, 1.5 mM CaCl2, 8 mM Glucose, and 10 mM HEPES; pH 7.4, then quickly transitioning to a high-K^+ buffer comprising 5 mM NaCl, 135 mM KCl, 1.2 mM MgCl2, 1.5 mM CaCl2, 8 mM Glucose, and 10 mM HEPES; pH 7.4. The barium-sensitive component of the current, observed when cells were perfused with the high-K^+ buffer, was analyzed and was determined by perfusing 5 mM BaCl2 in the high-K^+ buffer at the end of each experiment. The 5-ptaseOCRL system was activated using a 460 nm LED (Luminus) that was focused on the cells through the objective lens of an inverted microscope (Nikon). […] ML297, GAT1508 or GAT1521 were maintained as 10 mM stock solutions in DMSO and were diluted to concentrations between 10 μM and 1 nM using the high K^+ buffer for patch-clamp experiments.

The next assay has as its target T2, GIRK1/4 (Homo sapiens, UniProt P48544+P48549).
T2 sequence (P48549 1-501): T1 sequence (P48549 1-501)
T2 sequence (P48544 1-419): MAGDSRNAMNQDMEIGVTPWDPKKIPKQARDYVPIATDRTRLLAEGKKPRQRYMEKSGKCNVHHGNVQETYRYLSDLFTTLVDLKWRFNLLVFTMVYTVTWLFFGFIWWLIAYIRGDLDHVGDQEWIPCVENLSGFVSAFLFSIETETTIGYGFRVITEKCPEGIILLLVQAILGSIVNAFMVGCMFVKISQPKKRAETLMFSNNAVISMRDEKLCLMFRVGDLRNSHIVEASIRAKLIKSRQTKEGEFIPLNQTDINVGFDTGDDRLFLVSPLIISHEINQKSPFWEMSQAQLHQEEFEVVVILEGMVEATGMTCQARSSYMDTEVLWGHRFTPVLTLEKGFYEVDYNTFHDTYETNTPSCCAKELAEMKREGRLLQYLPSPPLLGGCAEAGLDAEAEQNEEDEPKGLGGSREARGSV
As to the kind of experiment: current inhibition by light-activated phosphatase 5-ptaseOCRL, HEK293 whole-cell patch-clamp, GIRK1/4. In kind it is cell-based. Also noted: expressed in transfected cells. The settings on record: HEK-293 cells.
Text: as §1
as §2, with “transfection. […]” for “transfection.”
Patch-clamp recording: Whole-cell currents were recorded with an Axopatch 200B amplifier (Molecular Devices) controlled via a USB-interface (National Instruments) using WinWCP software (University of Strathclyde). […] The barium-sensitive component of the current, observed when cells were perfused with the high-K^+ buffer, was analyzed and was determined by perfusing 5 mM BaCl2 in the high-K^+ buffer at the end of each experiment. […]

For `Cc1cc(NC(=O)Nc2ccc(C)s2)n(-c2ccccc2)n1` [GAT1521, 1-(3-methyl-1-phenyl-1H-pyrazol-5-yl)-3-(5-methylthiophen-2-yl)urea], on GIRK1/2, the “percentage of GIRK1/2 channel current remaining following activation of 5-ptaseOCRL (in words)” value was “increase”; the “τ of current-inhibition, GIRK1/2 (in words)” value (from here on “τ of current-inhibition”) is “increase”; the “protection from current inhibition, rank order, GIRK1/2” value (“protection from current inhibition” below) was “GAT1508>GAT1521>ML297>Control”. Also, the “protection of GIRK1/4 currents from inhibition by the light-activated phosphatase (in words)” value at GIRK1/4 is listed as “not”.

For `Cc1cc(NC(=O)Nc2ccc(Br)s2)n(-c2ccccc2)n1` [GAT1508, 1-(5-bromothiophen-2-yl)-3-(3-methyl-1-phenyl-1H-pyrazol-5-yl)urea], on GIRK1/2, the “percentage of GIRK1/2 channel current remaining following activation of 5-ptaseOCRL (in words)” value is “increase”; the “τ of current-inhibition” value is given as “increase”; the “protection from current inhibition” value was “GAT1508>GAT1521>ML297>Control”. Further, the “protection of GIRK1/4 currents from inhibition by the light-activated phosphatase (in words)” value on GIRK1/4 is “not”.

For `Cc1cc(NC(=O)Nc2ccc(F)c(F)c2)n(-c2ccccc2)n1` [ML297, reference compound], on GIRK1/2, the “percentage of GIRK1/2 channel current remaining following activation of 5-ptaseOCRL (in words)” value is given as “increase”; the “τ of current-inhibition” value was “increase”; the “protection from current inhibition” value was “GAT1508>GAT1521>ML297>Control”. Moreover, the “protection of GIRK1/4 currents from inhibition by the light-activated phosphatase (in words)” value on GIRK1/4 is on record as “some protection”.
